Measured values as given in patent US20240132492A1, “PYRIDOPYRIMIDINE-BASED COMPOUND AND APPLICATION THEREOF” (JINAN UNIVERSITY, priority 2021, published 2024).

Legend:
Assay type in all cases: cell-based
AKT1 = molecular target: T1, AKT1 (Homo sapiens, UniProt P31749); assay: Western Blot, degradation of AKT1 protein in H1975-OR cells; settings: 1000 nM, 24 hours, maximum degradation rate
T1 construct: AKT1, AKT2, and AKT3 proteins in H1975-OR cells; endogenous in cells; host or cells: H1975-OR (osimertinib-resistant H1975)
Method in brief: (§1)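 H1975-OR cells are Osimertinib-resistant H1975, adapted stepwise from 50 nM to 3 μM Osimertinib. Cells were treated with compound for 24 h, lysed, and immunoblotted with ECL detection. Band grayscale density was quantified.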

AKT2 = molecular target: T2, AKT2 (Homo sapiens, UniProt P31751); assay: Western Blot, degradation of AKT2 protein in H1975-OR cells; settings: 1000 nM, 24 hours, maximum degradation rate
T2 construct: AKT1, AKT2, and AKT3 proteins in H1975-OR cells; endogenous in cells; host or cells: H1975-OR (osimertinib-resistant H1975)
Method in brief: as §1

H1975 = assay: CCK-8 tumor cell proliferation, H1975; settings: Homo sapiens, NCI-H1975, H1975 cells, 72 hours
Method in brief: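 IC50 values, given as mean±SD, come from curve fitting of CCK-8 proliferation data. Cells (2000-3000/well, complete medium) received compounds at 0.000508 μM-10 μM for 72 hours following overnight attachment.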

H1975OR = assay: CCK-8 tumor cell proliferation, H1975OR; settings: H1975OR cells (Osimertinib resistant), 72 hours
Method in brief: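 Osimertinib-resistant H1975 cells, selected by raising Osimertinib stepwise from 50 nM to 3 μM, were treated for 72 h with compound at 0.000508–10 μM. Proliferation was read by CCK-8, and IC50 came from fitting the concentration–response curve, given as mean ± SD.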

PC-9 = assay: CCK-8 tumor cell proliferation, PC-9; settings: Homo sapiens, PC-9 cells, 72 hours
Description: (§2) Tumor cells (see Table 2 to Table 5) were inoculated in 96-well plates in complete culture medium (2000-3000 cells/well). After overnight incubation, the compounds with different concentrations (0.000508 μM-10 μM) were used to treat the cells separately for 72 hours. CCK-8 (Cell Counting Kit 8, Dojindo Laboratories, Kumamoto, Japan) experiment was used to evaluate cell proliferation. GraphPad Prism 5.0 software (La Jolla, CA) was used to calculate the half-maximal inhibitory concentration (IC50) values by fitting the concentration response curve. Each IC50 value was represented as an average value±SD.

A431 = assay: CCK-8 tumor cell proliferation, A431; settings: Homo sapiens, A-431, A431 cells, 72 hours
Description: as §2

HCC827 = assay: CCK-8 tumor cell proliferation, HCC827; settings: Homo sapiens, HCC827 cells, 72 hours
Description: as §2

H1299 = assay: CCK-8 tumor cell proliferation, H1299; settings: Homo sapiens, NCI-H1299, H1299 cells, 72 hours
Description: as §2

AKT3 = AKT3 (Homo sapiens, UniProt Q9Y243); assay: Western Blot, degradation of AKT3 protein in H1975-OR cells; parameters: endogenous in cells; host or cells: H1975-OR (osimertinib-resistant H1975); settings: 1000 nM, 24 hours, maximum degradation rate
Method in brief: as §1

T1 sequence (P31749 whole entry): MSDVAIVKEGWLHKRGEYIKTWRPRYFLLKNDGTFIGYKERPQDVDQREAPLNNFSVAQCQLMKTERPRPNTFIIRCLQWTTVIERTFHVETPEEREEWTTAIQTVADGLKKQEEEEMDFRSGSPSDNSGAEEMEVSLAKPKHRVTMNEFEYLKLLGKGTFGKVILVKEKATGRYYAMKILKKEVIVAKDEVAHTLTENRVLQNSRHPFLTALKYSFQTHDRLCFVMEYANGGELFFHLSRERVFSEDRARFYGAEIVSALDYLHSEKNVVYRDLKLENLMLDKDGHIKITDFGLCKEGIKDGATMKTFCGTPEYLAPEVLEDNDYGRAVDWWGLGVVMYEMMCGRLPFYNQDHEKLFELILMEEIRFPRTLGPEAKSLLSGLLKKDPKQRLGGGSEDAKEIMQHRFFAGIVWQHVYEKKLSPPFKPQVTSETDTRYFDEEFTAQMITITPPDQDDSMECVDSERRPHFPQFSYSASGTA
Chain of AKT3 (Q9Y243 whole entry): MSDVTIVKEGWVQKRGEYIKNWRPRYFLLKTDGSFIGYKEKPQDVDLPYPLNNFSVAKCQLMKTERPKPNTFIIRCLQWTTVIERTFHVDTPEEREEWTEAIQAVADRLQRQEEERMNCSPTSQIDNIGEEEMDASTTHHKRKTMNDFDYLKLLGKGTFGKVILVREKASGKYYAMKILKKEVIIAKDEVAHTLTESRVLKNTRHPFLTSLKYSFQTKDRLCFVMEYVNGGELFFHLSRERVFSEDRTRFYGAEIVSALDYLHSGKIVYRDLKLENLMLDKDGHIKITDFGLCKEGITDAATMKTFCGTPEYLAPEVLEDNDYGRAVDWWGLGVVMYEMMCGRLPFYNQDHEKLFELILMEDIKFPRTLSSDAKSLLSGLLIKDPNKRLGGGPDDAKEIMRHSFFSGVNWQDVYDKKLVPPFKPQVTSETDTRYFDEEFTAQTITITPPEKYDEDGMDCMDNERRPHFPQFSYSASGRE
T2 sequence (P31751 whole entry): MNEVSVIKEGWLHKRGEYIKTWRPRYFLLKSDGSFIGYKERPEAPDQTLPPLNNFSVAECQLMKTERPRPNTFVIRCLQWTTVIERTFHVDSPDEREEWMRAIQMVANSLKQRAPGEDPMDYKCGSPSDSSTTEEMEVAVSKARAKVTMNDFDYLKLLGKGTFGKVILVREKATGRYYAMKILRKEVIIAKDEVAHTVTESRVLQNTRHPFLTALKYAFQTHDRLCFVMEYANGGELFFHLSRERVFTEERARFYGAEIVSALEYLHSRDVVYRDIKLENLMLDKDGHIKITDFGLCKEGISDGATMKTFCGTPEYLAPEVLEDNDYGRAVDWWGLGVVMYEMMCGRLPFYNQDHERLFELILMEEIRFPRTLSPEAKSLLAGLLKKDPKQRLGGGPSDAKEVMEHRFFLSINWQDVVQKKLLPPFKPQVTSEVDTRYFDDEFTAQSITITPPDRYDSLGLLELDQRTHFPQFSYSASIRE

Structure (SMILES)	Dmax at 1 µM (AKT1)	Dmax at 1 µM (AKT2)	IC50 (H1975)	IC50 (H1975OR)	IC50 (PC-9)	IC50 (A431)	IC50 (HCC827)	IC50 (H1299)	Dmax at 1 µM (AKT3)
C=CC(=O)Nc1cccc(-n2c(=O)cc(C)c3cnc(Nc4ccc(N5CCN(CCCCCCCCCCNC(=O)CC67CC8CC(CC(C8)C6)C7)CC5)cc4OC)nc32)c1 [ZX-HYT-04, N-(3-(2-((4-(4-(10-(2-(((3R, 5R, 7R)-adamantan-1-yl)acetylamino)decyl)piperazin-1-yl)-2-methoxyphenyl)amino)-5-methyl-7-oxypyridino [2,3-d]pyrimidin-8 (7H)-yl)phenyl)acrylamide]	0%	0%	1.77 ± 0.187 µM	0.083 ± 0.019 µM	0.0181 ± 0.00105 µM	0.0102 ± 0.002 µM	0.0555 ± 0.0327 µM	0.305 ± 0.166 µM	26.6%
COc1cc(N2CCN(CCCCCCCCCCCCNC(=O)CC34CC5CC(CC(C5)C3)C4)CC2)ccc1Nc1ncc2c(C)cc(=O)n(-c3cccc(NC(C)=O)c3)c2n1 [ZX-HYT-09, N-(12-(4-(4-((8-(3-acetylaminophenyl)-5-methyl-7-oxy-7,8-dihydropyridino [2,3-d]pyrimidin-2-yl]amino)-3-methoxyphenyl)piperazin-1-yl)dodecyl)-2-((3R, 5R, 7R)-adamantan-1-yl) acetamide]	0%	0%	0.119 ± 0.0112 µM	0.0236 ± 0.00351 µM	0.215 ± 0.0636 µM	0.0106 ± 0.002 µM	0.134 ± 0.064 µM	0.624 ± 0.0448 µM	75.7%
C=CC(=O)Nc1cccc(-n2c(=O)cc(C)c3cnc(Nc4ccc(N5CCN(CCCCCCNC(=O)CC67CC8CC(CC(C8)C6)C7)CC5)cc4OC)nc32)c1 [ZX-HYT-02, N-(3-(2-((4-(4-(6-(2-(((3R, 5R, 7R)-adamantan-1-yl)acetamido)hexyl)piperazin-1-yl)-2-methoxyphenyl)amino)-5-methyl-7-oxypyridino [2,3-d]pyrimidin-8 (7H)-yl)phenyl)acrylamide]	0%	0%	0.194 ± 0.063 µM	0.167 ± 0.025 µM	0.255 ± 0.0394 µM	0.102 ± 0.0095 µM	0.105 ± 0.00819 µM	8.74 ± 1.12 µM	30.8%
COc1cc(N2CCN(CCCCCCCCCCCCNC(=O)CC34CC5CC(CC(C5)C3)C4)CC2)ccc1Nc1ncc2c(C)cc(=O)n(-c3cccc(NC(=O)C(C)C)c3)c2n1 [ZX-HYT-10, N-(3-(2-((4-(4-(12-(2-(((3R, 5R, 7R)-adamantan-1-yl)acetylamino)dodecyl)piperazin-1-yl)-2-methoxyphenyl)amino)-5-methyl-7-oxypyridino [2,3-d]pyrimidin-8 (7H)-yl)phenyl)isobutylamide]	0%	25.3%	0.142 ± 0.0494 µM	0.0196 ± 0.00141 µM	0.126 ± 0.0177 µM	0.0517 µM	0.309 ± 0.139 µM	1.81 ± 0.395 µM	57.1%
CCC(=O)Nc1cccc(-n2c(=O)cc(C)c3cnc(Nc4ccc(N5CCN(CCCCCCCCCCCCNC(=O)CC67CC8CC(CC(C8)C6)C7)CC5)cc4OC)nc32)c1 [ZX-HYT-08, N-(3-(2-((4-(4-(12-(2-((3R, 5R, 7R)-adamantan-1-yl)acetylamino)dodecyl)piperazin-1-yl)-2-methoxyphenyl)amino)-5-methyl-7-oxypyridino [2,3-d]pyrimidin-8 (7H)-yl)phenyl) propionamide]	0%	0%	8.47 µM	0.0107 ± 0.003 µM	0.109 ± 0.019 µM	0.00986 ± 0.0022 µM	0.157 ± 0.0679 µM	0.212 ± 0.0153 µM	66.8%
C=CC(=O)Nc1cccc(-n2c(=O)cc(C)c3cnc(Nc4ccc(N5CCN(CCOCCOCCNC(=O)CC67CC8CC(CC(C8)C6)C7)CC5)cc4OC)nc32)c1 [ZX-HYT-01]	59.2%	27.2%	3.27 ± 0.598 µM	2.01 ± 0.444 µM	1.57 ± 0.258 µM	0.541 ± 0.0589 µM	0.141 ± 0.0372 µM	10.4 ± 1.72 µM	67.6%
